Data: patent US10508120B2, “TYK2 inhibitors and uses thereof” (Nimbus Lakshmi, Inc., priority 2017, dated 2019)

Legend:
JAK2 kinase domain (JH1) = JAK2 kinase domain (JH1) (Homo sapiens (Human), UniProt O60674); test: JAK2 Radioactive Kinase Assay; type: biochemical; conditions: compound at 10 μM; ATP 10 μM; read-out: JAK2 JH1% Inhibition @ 10 μM
Procedure, shortened: (§1)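 Values are single-concentration percent inhibition figures. They were obtained with 10 μM compound in a radioactivity-based kinase assay run separately on each enzyme.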

[1] = target: Tyk2/JAK2 (heterodimeric complex) (Homo sapiens (Human), UniProt P29597); test: IL-12 Induced pSTAT4 in Human PBMC; type: cell-based; conditions: 1.7 ng/mL IL-12
Source text: The IL-12 Induced pSTAT4 assay evaluates the inhibition of IL-12 induced STAT4 phophorylation mediated by Tyk2/JAK2 (heterodimeric complex).

[2] = target: human TYK2 (JH2domain-pseudokinase) (Homo sapiens (Human), UniProt P29597); test: TYK2 JH2 Domain Binding Assay (KINOMEscan)
Procedure, shortened: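 Displacement of a DNA-tagged TYK2 JH2 fusion (human, aa G556–D888, HEK293 extract, <0.1 nM) from ligand-coated beads over 1 h at RT; binding buffer PBS/0.05% Tween 20/10 mM DTT/0.1% BSA.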

[3] = target: JAK2/JAK2 homdimeric complex (Homo sapiens (Human), UniProt O60674); test: GM-CSF Induced pSTAT5 in Human PBMC; type: cell-based; conditions: GM-CSF 5 ng/mL for 20 minutes, pSTAT5 by MSD, read-out: PBMC_GMCSF_pSTAT5 IC50
Tyk2 kinase domain (DH1) = Tyk2 kinase domain (DH1) (Homo sapiens (Human), UniProt P29597); test: Tyk2 Radioactive Kinase Assay; type: biochemical; conditions: compound at 10 μM; ATP 10 μM; read-out: Tyk2 JH1% Inhibition @ 10 μM
Procedure, shortened: as §1

Sequence of JAK2/JAK2 homdimeric complex (O60674 whole entry, the tested form may be a part): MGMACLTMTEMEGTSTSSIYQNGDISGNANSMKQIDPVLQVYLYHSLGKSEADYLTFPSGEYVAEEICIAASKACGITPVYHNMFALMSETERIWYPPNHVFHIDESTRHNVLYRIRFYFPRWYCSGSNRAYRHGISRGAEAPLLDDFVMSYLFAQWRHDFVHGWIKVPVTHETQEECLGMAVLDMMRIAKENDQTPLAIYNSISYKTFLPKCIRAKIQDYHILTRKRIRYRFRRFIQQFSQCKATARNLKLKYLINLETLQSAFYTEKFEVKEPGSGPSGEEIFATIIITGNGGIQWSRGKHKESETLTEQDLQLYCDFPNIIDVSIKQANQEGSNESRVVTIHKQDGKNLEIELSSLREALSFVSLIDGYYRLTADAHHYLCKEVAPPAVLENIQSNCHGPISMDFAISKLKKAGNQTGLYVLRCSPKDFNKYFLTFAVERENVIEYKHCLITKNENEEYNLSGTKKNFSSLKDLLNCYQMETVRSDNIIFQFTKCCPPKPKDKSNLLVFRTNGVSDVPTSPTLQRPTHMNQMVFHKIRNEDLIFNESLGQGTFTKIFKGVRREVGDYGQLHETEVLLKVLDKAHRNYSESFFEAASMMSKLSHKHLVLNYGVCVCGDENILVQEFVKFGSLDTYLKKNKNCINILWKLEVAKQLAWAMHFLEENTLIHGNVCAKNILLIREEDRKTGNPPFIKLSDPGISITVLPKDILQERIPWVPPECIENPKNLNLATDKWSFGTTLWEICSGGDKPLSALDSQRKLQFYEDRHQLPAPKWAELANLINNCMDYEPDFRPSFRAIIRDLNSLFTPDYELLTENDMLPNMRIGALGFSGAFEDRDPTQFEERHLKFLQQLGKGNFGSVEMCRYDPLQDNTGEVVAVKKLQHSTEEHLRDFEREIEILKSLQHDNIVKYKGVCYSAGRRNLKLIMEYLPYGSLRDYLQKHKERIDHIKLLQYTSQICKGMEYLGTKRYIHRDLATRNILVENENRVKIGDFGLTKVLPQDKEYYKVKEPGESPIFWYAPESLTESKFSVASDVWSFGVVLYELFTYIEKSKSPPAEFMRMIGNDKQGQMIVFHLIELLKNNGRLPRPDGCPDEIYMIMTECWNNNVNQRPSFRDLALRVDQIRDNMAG
Sequence of JAK2/JAK2 homdimeric complex (P32927 17-897 partner): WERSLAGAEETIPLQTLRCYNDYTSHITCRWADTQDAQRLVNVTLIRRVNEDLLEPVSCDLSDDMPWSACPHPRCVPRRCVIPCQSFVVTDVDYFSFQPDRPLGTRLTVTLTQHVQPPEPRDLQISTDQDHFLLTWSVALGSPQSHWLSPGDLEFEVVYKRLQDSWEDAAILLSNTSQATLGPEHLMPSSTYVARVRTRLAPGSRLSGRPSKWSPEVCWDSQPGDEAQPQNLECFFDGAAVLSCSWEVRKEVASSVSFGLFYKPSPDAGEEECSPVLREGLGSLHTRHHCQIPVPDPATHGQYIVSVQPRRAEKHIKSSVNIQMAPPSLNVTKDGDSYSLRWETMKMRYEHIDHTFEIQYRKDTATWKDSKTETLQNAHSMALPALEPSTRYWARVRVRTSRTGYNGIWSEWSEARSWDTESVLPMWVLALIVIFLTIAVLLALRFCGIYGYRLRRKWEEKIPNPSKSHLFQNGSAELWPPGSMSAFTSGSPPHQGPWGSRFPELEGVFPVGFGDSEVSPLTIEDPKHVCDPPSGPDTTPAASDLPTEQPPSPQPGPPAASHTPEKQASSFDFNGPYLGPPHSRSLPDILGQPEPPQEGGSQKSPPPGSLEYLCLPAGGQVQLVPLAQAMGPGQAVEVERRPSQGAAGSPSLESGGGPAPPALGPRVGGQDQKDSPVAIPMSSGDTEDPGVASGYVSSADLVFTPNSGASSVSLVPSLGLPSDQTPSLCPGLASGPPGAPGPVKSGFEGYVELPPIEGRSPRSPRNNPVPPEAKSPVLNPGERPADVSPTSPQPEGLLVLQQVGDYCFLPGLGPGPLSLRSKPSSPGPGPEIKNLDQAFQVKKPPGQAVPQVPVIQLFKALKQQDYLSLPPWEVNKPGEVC
Sequence of Tyk2 kinase domain (DH1) (P29597 897-1176): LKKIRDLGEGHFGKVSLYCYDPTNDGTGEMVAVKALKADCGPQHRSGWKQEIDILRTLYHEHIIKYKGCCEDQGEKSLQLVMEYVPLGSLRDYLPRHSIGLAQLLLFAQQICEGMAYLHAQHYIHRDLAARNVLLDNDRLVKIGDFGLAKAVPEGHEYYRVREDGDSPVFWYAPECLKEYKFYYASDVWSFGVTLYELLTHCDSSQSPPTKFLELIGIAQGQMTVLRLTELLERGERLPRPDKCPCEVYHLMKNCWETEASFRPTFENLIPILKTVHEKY
Sequence of Tyk2/JAK2 (heterodimeric complex) (P29597 whole entry, other chains not shown): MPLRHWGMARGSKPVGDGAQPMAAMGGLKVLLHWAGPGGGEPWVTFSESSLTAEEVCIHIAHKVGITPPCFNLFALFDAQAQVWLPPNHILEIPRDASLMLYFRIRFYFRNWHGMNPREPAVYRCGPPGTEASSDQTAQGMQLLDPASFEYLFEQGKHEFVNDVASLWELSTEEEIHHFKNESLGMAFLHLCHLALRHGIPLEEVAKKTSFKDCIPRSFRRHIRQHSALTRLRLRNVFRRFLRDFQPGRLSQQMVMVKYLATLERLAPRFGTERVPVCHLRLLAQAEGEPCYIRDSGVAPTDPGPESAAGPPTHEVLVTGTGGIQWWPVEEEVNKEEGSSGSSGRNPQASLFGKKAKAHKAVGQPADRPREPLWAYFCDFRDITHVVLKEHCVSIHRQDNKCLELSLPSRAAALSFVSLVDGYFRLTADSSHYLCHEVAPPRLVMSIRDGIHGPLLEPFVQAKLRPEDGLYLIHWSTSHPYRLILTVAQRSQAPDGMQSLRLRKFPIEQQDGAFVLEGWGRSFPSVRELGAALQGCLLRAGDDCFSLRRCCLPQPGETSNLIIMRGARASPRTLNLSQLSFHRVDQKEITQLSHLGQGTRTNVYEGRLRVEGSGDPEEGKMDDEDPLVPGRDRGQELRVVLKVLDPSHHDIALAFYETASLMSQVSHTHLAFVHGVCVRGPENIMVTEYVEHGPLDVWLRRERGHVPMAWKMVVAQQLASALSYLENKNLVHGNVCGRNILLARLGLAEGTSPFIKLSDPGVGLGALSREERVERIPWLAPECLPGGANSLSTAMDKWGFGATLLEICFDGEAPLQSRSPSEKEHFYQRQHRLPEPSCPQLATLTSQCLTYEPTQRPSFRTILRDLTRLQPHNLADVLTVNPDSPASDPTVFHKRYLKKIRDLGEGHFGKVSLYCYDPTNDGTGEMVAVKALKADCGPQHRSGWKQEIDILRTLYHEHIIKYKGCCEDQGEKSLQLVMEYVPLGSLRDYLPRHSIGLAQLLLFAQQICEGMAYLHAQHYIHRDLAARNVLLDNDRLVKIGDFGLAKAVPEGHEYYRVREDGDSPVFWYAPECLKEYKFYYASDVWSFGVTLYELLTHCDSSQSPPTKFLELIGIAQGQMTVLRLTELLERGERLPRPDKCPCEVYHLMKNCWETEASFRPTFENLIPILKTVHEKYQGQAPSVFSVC
Sequence of human TYK2 (JH2domain-pseudokinase) (P29597 556-888): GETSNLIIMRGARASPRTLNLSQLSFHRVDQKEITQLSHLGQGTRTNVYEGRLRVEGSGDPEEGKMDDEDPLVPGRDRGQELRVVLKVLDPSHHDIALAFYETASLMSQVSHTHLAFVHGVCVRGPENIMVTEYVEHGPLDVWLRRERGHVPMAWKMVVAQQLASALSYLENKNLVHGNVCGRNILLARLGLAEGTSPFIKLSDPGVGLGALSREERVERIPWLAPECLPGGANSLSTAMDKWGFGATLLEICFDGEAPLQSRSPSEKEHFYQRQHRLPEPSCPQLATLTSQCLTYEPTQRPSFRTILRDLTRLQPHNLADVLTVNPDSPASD
Sequence of JAK2 kinase domain (JH1) (O60674 849-1124): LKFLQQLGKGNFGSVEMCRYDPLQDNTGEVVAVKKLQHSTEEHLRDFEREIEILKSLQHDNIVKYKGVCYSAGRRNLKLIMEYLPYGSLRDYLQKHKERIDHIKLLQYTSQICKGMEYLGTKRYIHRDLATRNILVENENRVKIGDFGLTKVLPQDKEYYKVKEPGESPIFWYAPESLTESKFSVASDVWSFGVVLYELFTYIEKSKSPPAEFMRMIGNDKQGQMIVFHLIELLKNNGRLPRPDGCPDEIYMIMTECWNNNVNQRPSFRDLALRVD

| Structure (SMILES) | inhibition at 10 µM (JAK2 kinase domain (JH1)) | IC50 [1] | Kd [2] | IC50 [3] | inhibition at 10 µM (Tyk2 kinase domain (DH1)) |
| --- | --- | --- | --- | --- | --- |
| CNc1cc(Nc2cccc(N3CCCC3=O)n2)nc2c(C(=O)NC3CCC3)cnn12 [I-94] | < 50% | < 100 nM | < 0.2 nM | > 50000 nM | < 50% |
| CNc1cc(Nc2cccn(-c3cnc(C(C)(C)O)cn3)c2=O)nc2c(C(=O)NC3CCC3)cnn12 [I-95] | < 50% | < 100 nM | < 0.2 nM | > 50000 nM | < 50% |
| CNc1cc(Nc2cccc(N3CCOC3=O)n2)nc2c(C(=O)NC3CCC3)cnn12 [I-105] | 50 to 70% | < 100 nM | < 0.2 nM | > 12500 nM | < 50% |
| CNc1cc(Nc2cccnc2OC)nc2c(C(=O)N[C@H]3C[C@H]3F)cnn12 [I-110] | < 50% | < 100 nM | < 0.2 nM | > 50000 nM | < 50% |
| CNc1cc(Nc2cccn(-c3ccc(F)cn3)c2=O)nc2c(C(=O)N[C@H]3C[C@H]3F)cnn12 [I-115] | < 50% | < 100 nM | < 0.2 nM | > 12500 nM | < 50% |
| CCOc1ccc(-n2cccc(Nc3cc(NC)n4ncc(C(=O)N[C@H]5C[C@H]5F)c4n3)c2=O)nn1 [I-117] | < 50% | < 100 nM | < 0.2 nM | > 2500 nM | < 50% |
| CNc1cc(Nc2cccn(-c3ccc(C(=O)N4CCCC4)cn3)c2=O)nc2c(C(=O)NC3CCC3)cnn12 [I-121] | < 50% | 100 to 500 nM | < 0.2 nM | > 12500 nM | < 50% |
| CNc1cc(Nc2cccn(-c3cnc(C(=O)N(C)C)cn3)c2=O)nc2c(C(=O)NC3CCC3)cnn12 [I-122] | < 50% | < 100 nM | < 0.2 nM | > 2500 nM | < 50% |
| CNc1cc(Nc2cccn(-c3cccc(C(C)(C)O)n3)c2=O)nc2c(C(=O)N[C@H]3C[C@H]3F)cnn12 [I-123] | < 50% | < 100 nM | < 0.2 nM | > 50000 nM | < 50% |
| CNc1cc(Nc2cccn(-c3cnc(C(=O)N(C)C)cn3)c2=O)nc2c(C(=O)N[C@H]3C[C@H]3F)cnn12 [I-126] | < 50% | < 100 nM | < 0.2 nM | > 50000 nM | < 50% |
| CNc1cc(Nc2cccn(-c3cnc(C(=O)N(C)C)cn3)c2=O)nc2c(C(=O)NC3CC3)cnn12 [I-127, N-cyclopropyl-5-((1-(5-(dimethylcarbamoyl)pyrazin-2-yl)-2-oxo-1,2-dihydropyridin-3-yl)amino)-7-(methylamino)pyrazolo[1,5-a]pyrimidine-3-carboxamide] | < 50% | < 100 nM | < 0.2 nM | > 12500 nM | < 50% |
| CNc1cc(Nc2cccn(-c3cccc(C)n3)c2=O)nc2c(C(=O)N[C@H]3C[C@H]3F)cnn12 [I-131] | < 50% | < 100 nM | 1 to 10 nM | > 12500 nM | < 50% |
| CNc1cc(Nc2cccn(-c3ccc(F)cc3)c2=O)nc2c(C(=O)N[C@H]3C[C@H]3F)cnn12 [I-132] | < 50% | < 100 nM | < 0.2 nM | > 2500 nM | < 50% |
| CCn1cc(Cl)cc(Nc2cc(NC)n3ncc(C(=O)NC4CC4)c3n2)c1=O [I-133, 5-((5-chloro-1-ethyl-2-oo-1,2-dihydropyridin-3-yl)amino)-N-cyclopropyl-7-(methylamino)pyrazolo[1,5-a]pyrimidine-3-carboxamide] | < 50% | < 100 nM | < 0.2 nM | > 12500 nM | < 50% |
| CNc1cc(Nc2cccn(-c3ccc(N4CCOCC4)cc3)c2=O)nc2c(C(=O)N[C@H]3C[C@H]3F)cnn12 [I-135] | < 50% | < 100 nM | < 0.2 nM | > 2500 nM | < 50% |
| CNc1cc(Nc2cccn(-c3cc(C)n(C)n3)c2=O)nc2c(C(=O)NC3CCC3)cnn12 [I-136] | < 50% | < 100 nM | < 0.2 nM | > 2500 nM | < 50% |
| CNc1cc(Nc2cccn(-c3cc(C)n(C)n3)c2=O)nc2c(C(=O)N[C@H]3C[C@H]3F)cnn12 [I-137] | < 50% | < 100 nM | < 0.2 nM | > 50000 nM | < 50% |
| CNc1cc(Nc2cccn(-c3cc(C)n(C)n3)c2=O)nc2c(C(=O)NC3CC3)cnn12 [I-138] | < 50% | < 100 nM | < 0.2 nM | > 50000 nM | < 50% |
| CNc1cc(Nc2cccn(-c3ccn(C)n3)c2=O)nc2c(C(=O)NC3CCC3)cnn12 [I-139] | < 50% | < 100 nM | < 0.2 nM | > 50000 nM | < 50% |

| Structure (SMILES) | inhibition at 10 µM (JAK2 kinase domain (JH1)) | IC50 [1] | Kd [2] | IC50 [3] | inhibition at 10 µM (Tyk2 kinase domain (DH1)) |
| --- | --- | --- | --- | --- | --- |
| CNc1cc(Nc2cccn(-c3ccc(C)nn3)c2=O)nc2c(C(=O)NC3CCC3)cnn12 [I-141] | < 50% | < 100 nM | < 0.2 nM | > 50000 nM | < 50% |
| CNc1cc(Nc2cccnc2OC(C)C)nc2c(C(=O)NC3CCC3)cnn12 [I-145] | < 50% | 100 to 500 nM | < 0.2 nM | > 50000 nM | < 50% |
| CNc1cc(Nc2cccnc2OC(C)C)nc2c(C(=O)N[C@H]3C[C@H]3F)cnn12 [I-147] | < 50% | < 100 nM | < 0.2 nM | > 50000 nM | < 50% |
| CNc1cc(Nc2cccnc2OC(F)F)nc2c(C(=O)NC3CCC3)cnn12 [I-151] | < 50% | < 100 nM | < 0.2 nM | > 50000 nM | < 50% |
| CNc1cc(Nc2cccnc2OC(F)F)nc2c(C(=O)N[C@H]3C[C@H]3F)cnn12 [I-153] | 50 to 70% | < 100 nM | < 0.2 nM | > 12500 nM | < 50% |
| CNc1cc(Nc2cccnc2OC(F)F)nc2c(C(=O)NC3CC3)cnn12 [I-154] | 50 to 70% | < 100 nM | 0.2 to 1 nM | > 12500 nM | < 50% |
| CNc1cc(Nc2cccn(-c3cccc(C(C)(C)O)n3)c2=O)nc2c(C(=O)NC3CCC3)cnn12 [I-156] | < 50% | < 100 nM | < 0.2 nM | > 12500 nM | < 50% |
| CNc1cc(Nc2cccn(-c3ccon3)c2=O)nc2c(C(=O)NC3CCC3)cnn12 [I-158] | < 50% | < 100 nM | < 0.2 nM | > 50000 nM | < 50% |
| CNc1cc(Nc2cccn(-c3cc(C)on3)c2=O)nc2c(C(=O)NC3CCC3)cnn12 [I-160] | < 50% | < 100 nM | < 0.2 nM | > 12500 nM | < 50% |
| CNc1cc(Nc2cccn(-c3cc(C)on3)c2=O)nc2c(C(=O)N[C@H]3C[C@H]3F)cnn12 [I-161] | < 50% | < 100 nM | < 0.2 nM | > 12500 nM | < 50% |
| CNc1cc(Nc2cccn(-c3cc(C)on3)c2=O)nc2c(C(=O)NC3CC3)cnn12 [I-162] | < 50% | < 100 nM | < 0.2 nM | > 2500 nM | < 50% |
| CNc1cc(Nc2cccn(-c3ccc(N4CCOCC4)cn3)c2=O)nc2c(C(=O)NC3CCC3)cnn12 [I-163] | < 50% | < 100 nM | 0.2 to 1 nM | > 2500 nM | < 50% |
| CNc1cc(Nc2cc(Cl)cn(-c3ccc(C)nn3)c2=O)nc2c(C(=O)N[C@H]3C[C@H]3F)cnn12 [I-164] | < 50% | < 100 nM | < 0.2 nM | > 50000 nM | < 50% |
| CNc1cc(Nc2cccn(-c3ccc(C4CC4)nn3)c2=O)nc2c(C(=O)N[C@H]3C[C@H]3F)cnn12 [I-165] | < 50% | < 100 nM | < 0.2 nM | > 2500 nM | < 50% |
| CNc1cc(Nc2cccnc2OC2CCC2)nc2c(C(=O)N[C@H]3C[C@H]3F)cnn12 [I-170] | < 50% | < 100 nM | < 0.2 nM | > 50000 nM | < 50% |
| [2H]C([2H])([2H])Oc1ncccc1Nc1cc(NC)n2ncc(C(=O)NC3CCC3)c2n1 [I-176] | < 50% | < 100 nM | < 0.2 nM | > 50000 nM | < 50% |
| [2H]C([2H])([2H])Oc1ncccc1Nc1cc(NC)n2ncc(C(=O)N[C@H]3C[C@H]3F)c2n1 [I-177] | < 50% | < 100 nM | < 0.2 nM | > 12500 nM | < 50% |
| CNc1cc(Nc2cccn([C@H]3CC[C@@H](N4CCOCC4)CC3)c2=O)nc2c(C(=O)NC3CCC3)cnn12 [I-182] | < 50% | < 100 nM | < 0.2 nM | > 2500 nM | < 50% |
